From US12312301B2, “Organosulfur compounds” (MARIPOSA THERAPEUTICS LTD., priority 2018, dated 2025)

Assays:
Assay type in all cases: cell-based
[1] = system: Pseudomonas aeruginosa biofilm formation; experiment: Minimum Biofilm Inhibition Concentration (MBIC) assay, crystal violet biofilm mass; conditions: for P. aeruginosa MBIC: % of Ajoene positive control IC50: IC50 relative to ajoene run in the same experiment, <100% = more effective than ajoene
Protocol: (§1) Compounds were assayed for their ability to inhibit S. aureus or P. aeruginosa biofilm formation as follows. All compounds were prepared as a 30 mM stock in DMSO and diluted in TSB to 48 μM (S. aureus) or 144 μM (P. aeruginosa). The compounds were further serially diluted two-fold from 48 μM to 0.75 μM (S. aureus) or 144 μM to 2.3 μM (P. aeruginosa) and added to a 96-well plate at 100 μl per well. Overnight cultures of bacteria were diluted to an OD600=0.07 in fresh TSB and 100 μl of the diluted bacterial culture was added to the compound containing wells. The bacteria were incubated in the presence of the compounds overnight at 37° C. After incubation, the planktonic bacteria were removed by three washes using H2O and the remaining biofilm was stained using crystal violet and quantified photometrically at A570. Absorbances corresponding to biofilm mass were plotted versus compound concentration and IC50 values were calculated. Reference: O'Toole GA. Microtiter Dish Biofilm Formation Assay. J. Vis. Exp. (2011).
(§2) MBIC assays of the compounds are carried out alongside ajoene for reference and standardization. The 1050 of ajoene against S. aureus and P. aeruginosa is well-defined and reproducible allowing ajoene to serve as an effective control for the experiment. As such, the 1050 calculated for the tested compounds are compared to the 1050 of ajoene in every experiment and are therefore represented as % of ajoene.
(§3) The compound and the other biofilm inhibitory agents were assayed for their inhibitory activity using the MBIC method as described in Example 4. Absorbances corresponding to biofilm mass were plotted versus concentration of compound and other biofilm inhibitory agents.

[2] = system: Staphylococcus aureus biofilm formation; experiment: as above; conditions: for S. aureus MBIC: % of Ajoene positive control IC50: IC50 relative to ajoene run in the same experiment, <100% = more effective than ajoene
Protocol: as §1, §2, §3

HaCaT cells = experiment: Scratch closure test; conditions: 5 μM, HaCaT monolayer; for scratch closure observed at 20 h: in line with EGF positive control; for scratch closure compared to vehicle control: P<0.0001 vs 1% DMSO vehicle
Protocol: HaCaT cells (aneuploidy immortal keratinocyte cell line) were seeded in a 96-well plate at a cell density of 5×10^4 cells per well and incubated overnight at 37° C., 5% CO2 and 95% humidity. Test and control compounds were prepared in 1% DMSO and diluted to a concentration of 5 μM in pre-warmed HaCaT cell media. Cells were washed with pre-warmed PBS and the monolayers mechanically injured by introducing a vertical cell-free area in each individual well, and washed again. Test and control compounds were added and all wells microscopically imaged for time point 0. Cells were incubated as described above and imaged after 20 hours. All conditions were tested with an N of 4 replicates. Scratch closure was analysed using ImageJ software and standard deviation calculated. Scratch closure area reduction was plotted using GraphPrism 8 software.

P. aeruginosa MBIC: % of Ajoene positive control IC50 [1] | S. aureus MBIC: % of Ajoene positive control IC50 [2] | Structure (SMILES) | also measured
87 % of Ajoene | 4 % of Ajoene | C=CCSSC=CCS(=O)(=O)Cc1ccc(OC)cc1 | –
49.2 % of Ajoene | 7 % of Ajoene | C=CCSSC=CCS(=O)(=O)Cc1ccc(F)cc1 | –
56 % of Ajoene | 75 % of Ajoene | COc1ccc(CSSC=CCS(=O)(=O)Cc2ccccc2)cc1 | –
27.8 % of Ajoene | 8.2 % of Ajoene | COc1ccc(CSS/C=C/CS(=O)(=O)Cc2ccc(C(F)(F)F)cc2)cc1 | –
34.7 % of Ajoene | 20.5 % of Ajoene | COC(=O)c1ccc(CSS/C=C/CS(=O)(=O)Cc2ccc(C(F)(F)F)cc2)cc1 | –
13.9 % of Ajoene | 51 % of Ajoene | COc1ccccc1CSSC=CCS(=O)(=O)Cc1ccc(C(F)(F)F)cc1 | –
65.3 % of Ajoene | 20 % of Ajoene | COc1cccc(CSSC=CCS(=O)(=O)Cc2ccc(C(F)(F)F)cc2)c1 | –
79 % of Ajoene | 24 % of Ajoene | COc1ccc(CSSC=CCS(=O)(=O)Cc2ccc(C(F)(F)F)cc2)cc1 | –
45.3 % of Ajoene | 28.6 % of Ajoene | O=S(=O)(CC=CSSCc1ccc(C(F)(F)F)cc1)Cc1ccc(C(F)(F)F)cc1 [drawing 50] | –

Second part, the molecule before the results:

Structure (SMILES) | P. aeruginosa MBIC: % of Ajoene positive control IC50 [1] | S. aureus MBIC: % of Ajoene positive control IC50 [2] | also measured
C=CCSSC=CCS(=O)(=O)Cc1ccc(S(C)(=O)=O)cc1 | 82 % of Ajoene | 23 % of Ajoene | –
C=CCSS/C=C/CS(=O)(=O)Cc1ccc(C(F)(F)F)cc1 | 78.7 % of Ajoene | 55.5 % of Ajoene | –
O=S(=O)(CC=CSSCC1CC1)CC1CC1 | 57.5 % of Ajoene | 69.18 % of Ajoene | –
C=CCSSC=CCS(=O)(=O)Cc1ccco1 | 11.7 % of Ajoene | 21.9 % of Ajoene | –
C=CCSSC=CCS(=O)(=O)Cc1cccs1 | 29.7 % of Ajoene | 52 % of Ajoene | –
C=CCSS/C=C/C[S+]([O-])CC=C (stereo not shown) [E-ajoene] | – | – | scratch closure observed at 20 h (HaCaT cells): complete scratch closure; scratch closure compared to vehicle control (HaCaT cells): enhanced scratch closure
COc1ccc(CSS/C=C\CS(=O)(=O)Cc2ccc(C(F)(F)F)cc2)cc1 [Test compound 3] | – | – | scratch closure observed at 20 h (HaCaT cells): complete scratch closure; scratch closure compared to vehicle control (HaCaT cells): enhanced scratch closure
C=CCSSC=CCS(=O)(=O)Cc1ccc(C(F)(F)F)cc1 [drawing 51] | 42.75 % of Ajoene | 38.6 % of Ajoene | –
C[S+]([O-])CCCCN=C=S (stereo not shown) [sulforaphane] | – | – | scratch closure observed at 20 h (HaCaT cells): complete scratch closure; scratch closure compared to vehicle control (HaCaT cells): enhanced scratch closure
O=S(=O)(CC=CSSCc1ccc(C(F)(F)F)cc1)Cc1ccc(C(F)(F)F)cc1 [test compound 1, 1-(trifluoromethyl)-4-{[(3-{[4-(trifluoromethyl)phenyl]methanesulfonyl}prop-1-en-1-yl)disulfanyl]methyl}benzene] | – | – | IC50 against Pseudomonas aeruginosa biofilm compared to ajoene ([1]; Example 4, FIG. 2, 144 μM to 2.3 μM, overnight 37° C.): lower 1050 than ajoene; IC50 against Staphylococcus aureus biofilm compared to ajoene ([2]; Example 4, FIG. 1, 48 μM to 0.75 μM, overnight 37° C.): lower 1050 than ajoene
C=CCSSC=CCS(=O)(=O)Cc1ccc(C(F)(F)F)cc1 [test compound 2, 1-{[-3-(prop-2-en-1-yldisulfanyl)prop-2-ene-1-sulfonyl]methyl}-4-(trifluoromethyl)benzene] | – | – | inhibitory activity on P. aeruginosa biofilm compared to ajoene, cysteamine, gallium nitrate, HDMF, and C-30 ([1]; Example 6, FIG. 3): improved inhibitory activity; inhibitory activity on S. aureus biofilm compared to ajoene, cysteamine, gallium nitrate, HDMF, and C-30 ([2]; Example 6, FIG. 4): improved inhibitory activity
